In patent US12377087B2, “Compounds for the treatment of cancer” (UNIVERSITY OF LOUISVILLE RESEARCH FOUNDATION, INC., priority 2015, dated 2025):

Columns and labels:
[1] = system: A549; test: viable cell count of A549 cells; assay type: cell-based; conditions: A549, 48 hours
Description: (§1) Cell Viability: Cells were incubated in 20% trypan blue (Sigma) for 5 minutes. Cells excluding trypan blue were counted using a standard hemocytometer (Hausser Scientific) to determine total numbers of viable cells. Data are expressed as mean±SD of three experiments.

[2] = two-week oral toxicity study; assay type: in vivo; conditions: C57BL/6 mice, 120 mg/kg PO for two weeks
Description: Given the potential usefulness of oral administration in terms of cost and convenience, we elected to pursue this route in subsequent toxicity and efficacy pre-clinical studies. Initially, we dosed C57BL/6 mice with 120 mg/kg PO for two weeks and analyzed the effect on complete blood counts, electrolytes, hepatic and renal function, body mass and the gross and histological appearance of the brain, heart, lungs, liver, kidneys and spleen. […] Next, the effects of oral administration of 5MPN on intratumoral F2,6BP and glucose uptake by LLC xenografts was examined. […] It was confirmed that 5MPN caused a G1 arrest in LLC cells in vitro similar to H460 cells (FIG. 4G). The number of Ki67-positive cells was examined since Ki-67 expression correlates with later S and G2 phases of the cell cycle (Sasaki K et al. The cell cycle associated change of the Ki-67 reactive nuclear antigen expression. J Cell Physiol 1987 December; 133(3):579-84).

[3] = system: H460 cells; test: cell cycle analysis by flow cytometry in H460 cells; assay type: cell-based, human
Description: Flow Cytometry: To measure apoptosis, cells were stained with annexin V and propidium iodide and examined as previously described. […] DMSO used as vehicle. For cell cycle experiments, cells were detached, washed with cold PBS and fixed in 70% ethanol (4° C. 30 minutes). The cells then were pelleted by centrifugation, resuspended in PBS containing PI and RNase A, incubated at 37° C. in the dark for 30 minutes and analyzed by flow cytometry (BD FACSCalibur). Data were analyzed using FlowJo software (TREE STAR Inc.). Results were calculated as the mean±SD of three experiments.

[4] = system: NHBE cells; test: viable cell count of normal human bronchial epithelial cells; assay type: cell-based; conditions: 48 hours
Description: (§2) Cell lines and cell culture: H460, H1299, H441, H522 and A549 non-small cell lung cancer (NSCLC), MDA-MB-231 (breast), LNCaP (prostatic) and HCT116 (colon) adenocarcinoma and Lewis lung carcinoma (LLC) cell lines were obtained from ATCC and used within 6 months of acquisition, PFKFB4^7 ear pinna Fibroblasts isolated from TamCre/loxP/PFKFB4^−/− mice were immortalized as described previously (Chesney J et al. Fructose-2,6-bisphosphate synthesis by 6-phosphofructo-2-kinase/fructose-2,6-bisphosphatase 4 (PFKFB4) is required for the glycolytic response to hypoxia and tumor growth. Oncotarget 2014 Aug. 30; 5(16):6670-86). Normal bronchial epithelial cells (NHBE) were obtained from Lonza and NHBE cells expressing telomerase, SV40 large T antigen and activated Ras (hT/LT/Ras) were a gift from Dr. B. J. Rollins, Dana Farber Cancer Institute. All cell lines were tested and found negative for mycoplasma (PCR Mycoplasma Detection Kit, ABM). […]
as §1

[5] = system: H460 cells; test: F2,6BP measurements in H460 cells; assay type: cell-based, human
Description: F2,6BP measurements: Cells or tissues were prepared as previously described and F2,6BP content measured using a coupled enzyme reaction following the method of Van Schaftingen et at (Van Schaftingen E et al. A kinetic study of pyrophosphate: fructose-6-phosphate phosphotransferase from potato tubers. Application to a microassay of fructose 2,6-bisphosphate. Eur J Biochem 1982 December; 129(1): 191-5) and normalized to total cellular protein measured by the bicinchoninic acid assay (BCA, Thermo Scientific). […] In order to measure F2,6BP, cells were harvested, washed with PBS, lysed in NaOH/Tris acetate by heating at 80° C. and lysates neutralized to pH 7.2. F2,6BP content was measured using a coupled enzyme reaction following the method of Van Schaftingen et al (Eur J Biochem. 1982; 129(1): 191-195). The F2,6BP concentration was normalized to total cellular protein measured by the bicinchoninic acid assay (BCA, Thermo Scientific) All data are expressed as the mean±SD of three experiments. Statistical significance was assessed by the two-sample t test (independent variable).

[6] = system: PFK-1; test: kinase activity of PFK-1; assay type: biochemical; conditions: 10 μM
[7] = system: hT/LT/Ras cells; test: viable cell count of hT/LT/Ras cells; assay type: cell-based, human; conditions: 48 hours
Description: as §2, §1

[8] = H460 transfected with PFKFB4, 10 μM 5MPN, 24 hours

In the case of `COc1cccc2c(NCCCCCO[N+](=O)[O-])ccnc12` [5MPN, 5-[(8-methoxyquinolin-4-yl)amino]pentyl nitrate], the “growth, viable cells” value [1] is reported as “dose-dependent reduction in growth”, the “toxicity: blood counts, electrolytes, hepatic and renal function, body mass, organ histology, behavioral or clinical changes” value [2] is reported as “no signs of toxicity” and the “cell cycle distribution (G1, S, G2)” value ([3]; H460, 10 μM 5MPN) is reported as “marked G1 arrest”. For the same molecule, the “G1 arrest with over-expression of PFKFB4” value [3, 8] was “reversed”, the “cell growth, live cells” value [4] was “virtually unaffected” and the “intracellular concentration of F2,6BP” value ([5]; H460, 10 μM 5MPN, 6-72 hours) was “reduced”. The “reduction in F2,6BP with over-expression of PFKFB4” value [5, 8] was “reversed”, the “inhibition of PFK-1 kinase activity” value [6] was “no inhibition of kinase activity” and the “cell growth, live cells” value [7] was “suppressed similar to other transformed cells”.
